Measurements reported in patent US9738612B2, “Methylacryloyl benzimidazolone derivative and anti-tumour use thereof” (SHANGHAI NATURE STANDARD R&D AND BIOTECH CO., LTD, priority 2014, dated 2017).

Assays:
[1] = tested on: Akt phosphorylation at S473 site; experiment: ELISA (double antibody sandwich), Akt phosphorylation in IGF-1 stimulated A549 cells; type: cell-based; conditions: drug 1 h, then IGF-1 10 min, p-Akt (S473) ELISA
Experimental: Establishment of ELISA screening method using a double antibody sandwich method: A549 cells (a lung cancer cell line, purchased from Chinese Academy of Sciences, Shanghai Institutes for Biological Sciences Cell Resource Center) were inoculated at certain densities in 12-well plates, and incubated at 37° C. in a carbon dioxide incubator overnight to let cells attach the plate wells. Meanwhile the Akt antibody was inoculated at a specific concentration in a highly-adsorbed microplate, and placed in a refrigerator at 4° C. The 12-well plates were washed with sterile PBS three times, then into which serum-free F12 was added, and incubated for 24 hours in a incubator. Then MK2206, Triciribine and FD series drugs were added into 12-well plates and worked for one hour, followed by adding 100 ng of IGF-1 and being stimulated for 10 minutes. The 12-well plates were washed with pre-cooled PBS three times, and 100 μl of RIPA lysis buffer was added into each well to lyse cells on ice for 20 minutes. The lysates were collected and added to the appropriate microplate (purchased from Santa Cruz biotechnology), which were shaken on ice. A p-Akt (S473) antibody (purchased Cell Signaling Technology, Inc.) was added into microplates. After shaking for a period of time, an anti-rabbit antibody (purchased from Cell Signaling Technology, Inc.) was added. The reaction was terminated with 2M sulfuric acid after TMB developed. Absorbance at 450 nm was measured on a microplate reader, and the inhibitory rate=[…], among which ODsample refers to the absorbance of the sample well, ODIGF refers the absorbance of the well with IGF only, OD—IGF refers the absorbance of the well withoutIGF.

[2] = tested on: A549; experiment: Sulforhodamine B proliferation; type: cell-based; conditions: Homo sapiens, A549, 72 h, SRB, read-out: Inhibitory rate % (A549)
Experimental: (§1) At a certain density cells were seeded in 96-well plates, and adhered overnight. The medium was discarded after incubating cells with compounds to be tested for 72 h, then 100μL/well trichloroacetic acid (TCA) was added to fix cells at 4° C. for 2h. After that the fixing solution was discarded. Cells were gently washed 5 times with distilled water, dried at room temperature. Cells were stained with 4 mg/mL SRB staining solution (100 μL/well) at room temperature for 15min. The staining solution was discarded, and cells were washed five times with 1% acetic acid (HAC) and dried at room temperature. To the plate tris base buffer (10 mM) was added at 150 μL/well and placed at room temperature for 15min. The OD values were measured at 540 nm wavelength in a microplate reader. Inhibitory rate (%)=(OD valuecontrol wells−OD valuedrugs treated wells)/OD valuecontrol wells×100%.
(§2) The results were shown in Table 2, the working concentrations of MK2206 and compounds of FD series were 10 μM. As shown in this Table, PC-3 is a prostate cancer cell line purchased from Cell Resource Center of Shanghai Institutes for Biological Sciences, Chinese Academy of Sciences, A549 is a lung cancer cell line purchased from Cell Resource Center of Shanghai Institutes for Biological Sciences, Chinese Academy of Sciences, and SGC-7901 is a gastric cancer cell line purchased from Cell Resource Center of Shanghai Institutes for Biological Sciences, Chinese Academy of Sciences.

[3] = tested on: PC-3; experiment: Sulforhodamine B proliferation; type: cell-based; conditions: Homo sapiens, PC-3, 72 h, 72 h, SRB, read-out: Inhibitory rate % (PC-3)
Experimental: as §1, §2

[4] = tested on: SGC-7901; experiment: Sulforhodamine B proliferation; type: cell-based; conditions: Homo sapiens, SGC-7901, 72 h, SRB, read-out: Inhibitory rate % (SGC-7901)
Experimental: as §1, §2

[5] = tested on: Hela cells; experiment: Subcutaneous transplantation of Hela cells into nude mice; type: in vivo
Experimental: The method used herein for animal experiment was that using the subcutaneous transplantation of Hela cells into nude mice.
Tumor tissues at vigorous growth phase were cut into the size of about 1.5mm^3, and inoculated subcutaneously to the right armpit of nude mice under sterile condition. The diameters of subcutaneous xenograft tumors in nude mice were measured with a vernier caliper. The animals were randomly divided when the tumors grew to the sizes of 100-200 mm^3. FD162 was divided into three groups: 20mg/kg, 10mg/kg and 5mg/kg, with 9 mice per group; rapamycin was 10mg/kg; the model group was given saline. All treatments were intraperitoneally administered once a day for 12 days. Throughout the experiment, tumor diameters and body weights were measured simultaneously twice a week. Tumor volume (TV) was calculated as follows: TV=½×a×b2, where a, b respectively represents the length and width of tumors. […]

C=C(C)n1c(=O)n(C(C)=O)c2ncc(Br)cc21 [FD162]
Inhibitory rate % (Akt phosphorylation) [1]: 91% | inhibition at 10 µM [2]: 12.1% | inhibition at 10 µM [3]: 62.4% | inhibition at 10 µM [4]: 70.2% | Tumor inhibitory rate ([5]; 10 mg/kg intraperitoneally once a day for 12 days, Hela xenograft in nude mice): greater than 50% | Tumor inhibiting effect compared with positive control group (rapamycin 10mg/kg) ([5]; middle dose (10 mg/kg), i.p., 12 days, FIG. 5, in words): better than the positive control group
